Results reported in PubChem BioAssay (NCI).
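The compound was tested at five concentrations on cells cultured in 96-well plates, with a 48-hour exposure period. Abbreviation: GI50, concentration required for 50% inhibition of growth. Definition used: TGI = concentration required for complete inhibition of growth.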

Tests used:
Assay in all cases: growth of human tumour cells (NCI), 48 h
A549 NSCLC = test system: A549 NSCLC
CCRF-CEM leukemia = test system: CCRF-CEM leukemia
SNB-75 CNS = test system: SNB-75 CNS
SR leukemia = test system: SR leukemia
786-0 renal = test system: 786-0 renal
K-562 leukemia = test system: K-562 leukemia
BT-549 breast = test system: BT-549 breast
MDA-MB-435 = test system: MDA-MB-435
SN12C renal = test system: SN12C renal
CAKI-1 renal = test system: CAKI-1 renal
HOP-92 NSCLC = test system: HOP-92 NSCLC
MDA-MB-231 breast = test system: MDA-MB-231 breast
HS 578T breast = test system: HS 578T breast
HCC-2998 colon = test system: HCC-2998 colon
M14 melanoma = test system: M14 melanoma
IGROV1 ovarian = test system: IGROV1 ovarian
SNB-19 CNS = test system: SNB-19 CNS
PC-3 prostate = test system: PC-3 prostate
HOP-62 NSCLC = test system: HOP-62 NSCLC
HL-60(TB) leukemia = test system: HL-60(TB) leukemia
SF-295 CNS = test system: SF-295 CNS
HT29 colon = test system: HT29 colon
SF-539 CNS = test system: SF-539 CNS
SW-620 colon = test system: SW-620 colon
MOLT-4 leukemia = test system: MOLT-4 leukemia
NCI-H460 lung = test system: NCI-H460 lung
SK-MEL-5 melanoma = test system: SK-MEL-5 melanoma
HCT-15 colon = test system: HCT-15 colon
MCF7 breast = test system: MCF7 breast
SK-MEL-2 melanoma = test system: SK-MEL-2 melanoma
OVCAR-5 ovarian = test system: OVCAR-5 ovarian
TK-10 renal = test system: TK-10 renal
SK-MEL-28 melanoma = test system: SK-MEL-28 melanoma
U251 CNS = test system: U251 CNS
UACC-62 melanoma = test system: UACC-62 melanoma
SF-268 CNS = test system: SF-268 CNS
EKVX NSCLC = test system: EKVX NSCLC
NCI-H23 lung = test system: NCI-H23 lung
DU-145 prostate = test system: DU-145 prostate
SK-OV-3 ovarian = test system: SK-OV-3 ovarian
T-47D breast = test system: T-47D breast
NCI/ADR-RES ovarian = test system: NCI/ADR-RES ovarian
RPMI-8226 leukemia = test system: RPMI-8226 leukemia
COLO 205 colon = test system: COLO 205 colon
OVCAR-8 ovarian = test system: OVCAR-8 ovarian
UACC-257 melanoma = test system: UACC-257 melanoma
RXF 393 renal = test system: RXF 393 renal
OVCAR-4 ovarian = test system: OVCAR-4 ovarian
HCT-116 colon = test system: HCT-116 colon
ACHN renal = test system: ACHN renal
KM12 colon = test system: KM12 colon
UO-31 renal = test system: UO-31 renal
A498 renal = test system: A498 renal
MALME-3M melanoma = test system: MALME-3M melanoma

C#C[C@]1(O)CC[C@H]2[C@@H]3CC=C4c5sc(Nc6cccc(F)c6)nc5CC[C@]4(C)[C@H]3CC[C@@]21C
GI50 (A549 NSCLC): 2730 nM
TGI (A549 NSCLC): 20300 nM
GI50 (CCRF-CEM leukemia): 534 nM
TGI (CCRF-CEM leukemia): 4160 nM
GI50 (SNB-75 CNS): 310 nM
TGI (SNB-75 CNS): 6080 nM
GI50 (SR leukemia): 340 nM
TGI (SR leukemia): 2960 nM
GI50 (786-0 renal): 371 nM
TGI (786-0 renal): 2110 nM
GI50 (K-562 leukemia): 677 nM
TGI (K-562 leukemia): 3540 nM
GI50 (BT-549 breast): 456 nM
TGI (BT-549 breast): 3550 nM
GI50 (MDA-MB-435): 1650 nM
TGI (MDA-MB-435): 7500 nM
GI50 (SN12C renal): 3330 nM
TGI (SN12C renal): 13100 nM
GI50 (CAKI-1 renal): 1030 nM
TGI (CAKI-1 renal): 10800 nM
GI50 (HOP-92 NSCLC): 2190 nM
TGI (HOP-92 NSCLC): 7620 nM
GI50 (MDA-MB-231 breast): 1940 nM
TGI (MDA-MB-231 breast): 5490 nM
GI50 (HS 578T breast): 364 nM
TGI (HS 578T breast): 3700 nM
GI50 (HCC-2998 colon): 2410 nM
TGI (HCC-2998 colon): 6460 nM
GI50 (M14 melanoma): 1310 nM
TGI (M14 melanoma): 5870 nM
GI50 (IGROV1 ovarian): 1950 nM
TGI (IGROV1 ovarian): 7200 nM
GI50 (SNB-19 CNS): 1490 nM
TGI (SNB-19 CNS): 3880 nM
GI50 (PC-3 prostate): 659 nM
TGI (PC-3 prostate): 12300 nM
GI50 (HOP-62 NSCLC): 2150 nM
TGI (HOP-62 NSCLC): 13600 nM
GI50 (HL-60(TB) leukemia): 618 nM
TGI (HL-60(TB) leukemia): 2890 nM
GI50 (SF-295 CNS): 208 nM
TGI (SF-295 CNS): 499 nM
GI50 (HT29 colon): 1520 nM
TGI (HT29 colon): 6060 nM
GI50 (SF-539 CNS): 221 nM
TGI (SF-539 CNS): 1060 nM
GI50 (SW-620 colon): 1720 nM
TGI (SW-620 colon): 4500 nM
GI50 (MOLT-4 leukemia): 306 nM
TGI (MOLT-4 leukemia): 947 nM
GI50 (NCI-H460 lung): 1160 nM
TGI (NCI-H460 lung): 3020 nM
GI50 (SK-MEL-5 melanoma): 1600 nM
TGI (SK-MEL-5 melanoma): 3220 nM
GI50 (HCT-15 colon): 1450 nM
TGI (HCT-15 colon): 4260 nM
GI50 (MCF7 breast): 963 nM
TGI (MCF7 breast): 3690 nM
GI50 (SK-MEL-2 melanoma): 1100 nM
TGI (SK-MEL-2 melanoma): 4450 nM
GI50 (OVCAR-5 ovarian): 1760 nM
TGI (OVCAR-5 ovarian): 4470 nM
GI50 (TK-10 renal): 3760 nM
TGI (TK-10 renal): 15700 nM
GI50 (SK-MEL-28 melanoma): 500 nM
TGI (SK-MEL-28 melanoma): 2060 nM
GI50 (U251 CNS): 821 nM
TGI (U251 CNS): 3880 nM
GI50 (UACC-62 melanoma): 1250 nM
TGI (UACC-62 melanoma): 3870 nM
GI50 (SF-268 CNS): 1620 nM
TGI (SF-268 CNS): 7500 nM
GI50 (EKVX NSCLC): 1650 nM
TGI (EKVX NSCLC): 15200 nM
GI50 (NCI-H23 lung): 1950 nM
TGI (NCI-H23 lung): 8420 nM
GI50 (DU-145 prostate): 1490 nM
TGI (DU-145 prostate): 3970 nM
GI50 (SK-OV-3 ovarian): 1860 nM
TGI (SK-OV-3 ovarian): 10100 nM
GI50 (T-47D breast): 2140 nM
TGI (T-47D breast): 13800 nM
GI50 (NCI/ADR-RES ovarian): 2320 nM
TGI (NCI/ADR-RES ovarian): 7610 nM
GI50 (RPMI-8226 leukemia): 204 nM
TGI (RPMI-8226 leukemia): 615 nM
GI50 (COLO 205 colon): 1830 nM
TGI (COLO 205 colon): 4630 nM
GI50 (OVCAR-8 ovarian): 3040 nM
TGI (OVCAR-8 ovarian): 87200 nM
GI50 (UACC-257 melanoma): 2310 nM
TGI (UACC-257 melanoma): 17000 nM
GI50 (RXF 393 renal): 65.3 nM
TGI (RXF 393 renal): 328 nM
GI50 (OVCAR-4 ovarian): 2590 nM
TGI (OVCAR-4 ovarian): 16300 nM
GI50 (HCT-116 colon): 982 nM
TGI (HCT-116 colon): 2350 nM
GI50 (ACHN renal): 1350 nM
TGI (ACHN renal): 4220 nM
GI50 (KM12 colon): 1890 nM
TGI (KM12 colon): 5690 nM
GI50 (UO-31 renal): 937 nM
TGI (UO-31 renal): 2790 nM
GI50 (A498 renal): 368 nM
TGI (A498 renal): 2030 nM
GI50 (MALME-3M melanoma): 1490 nM
TGI (MALME-3M melanoma): 4710 nM
